{"source": "patent US20170281578A1", "about": "“METHODS FOR TREATING METABOLIC DISTURBANCES” (THE BOARD OF REGENTS OF THE UNIVERSITY OF TEXAS SYSTEM, priority 2016, published 2017)", "key": {"[1]": {"assay": "Crossover trial in pre- or Stage I hypertension: serum and 24-hour urinary K and Mg", "assay_type": "in vivo, human", "details": "4-week phases, 20 meq K bid; vs placebo phase, p<0.01", "excerpt": "In the inventors' published study (Vongpatanasin, 2016), 30 patients with pre- (6 subjects) or Stage I (24 subjects) hypertension underwent a crossover trial, whereby they took KMgCit powder (20 meq K, 10 meq Mg and 37 meq citrate twice daily), KCit powder (20 meq K and 20 meq citrate twice daily), KCl powder (20 meq K and 20 meq chloride twice daily), or placebo (microcrystalline cellulose) for four weeks each. Among hypertensive subjects, 17 of 24 received antihypertensive treatment before study participation. All treated subjects received single-drug regimen before participation in the study (6 were on β blockers, 11 on angiotensin receptor blockers, or angiotensin-converting enzyme inhibitors, or calcium channel blockers), which was continued at the same dose throughout the study. None of the subjects had low serum Mg<1.8 mg/dl or serum K<3.5 meq/l or were on diuretic therapy.\nSerum K and 24-hour urinary K excretion were increased during KCl, KCit, and KMgCit phases compared with placebo phase (p <0.01 vs placebo). Serum Mg was increased during KMgCit phase compared with placebo and KCl phases (both p<0.01); 24-hour urinary Mg excretion was increased during KMgCit phase compared with placebo and KCit (both p<0.01). 24-hour urinary Mg excretion was higher during KMgCit compared with KCl (p=0.017)."}, "[2]": {"test_system": "serum FGF23", "assay": "Crossover randomized trial in pre- or Stage I hypertension: serum FGF23", "assay_type": "in vivo, human", "details": "30 patients; after 4 weeks of treatment; 20 meq K twice daily; p=0.05", "experimental": "FIG. 4 illustrates effect of KMgCit on serum FGF23.\nIn the inventors' study, 30 patients with pre- or Stage I hypertension participated in a crossover randomized trial, whereby they took KMgCit powder (20 meq K, 10 meq Mg and 37 meq citrate twice daily) or KCl powder (20 meq K and 20 meq chloride twice daily) for four weeks each. After 4 weeks of treatment, serum samples were analyzed fro FGF23."}, "[3]": {"test_system": "serum triglyceride", "assay": "Serum triglyceride in healthy adults on HCTZ with KMgCit or KCl", "assay_type": "in vivo, human", "details": "from 1 month to 5 months of treatment; with HCTZ 50 mg/day; 40 meq K/day; p=0.09 between groups", "experimental": "In the inventors' prior study (Odvina, & Pak, 2006), previously unpublished data on serum triglyceride were extracted. Eight healthy adult subjects took HCTZ 50 mg/day with KMgCit containing 40 meq K and 20 meq Mg/day for 6 months. Ten subjects received HCTZ 50 mg/day with KC1 40 meq K/day. Serum triglyceride declined by −32±41 mg/dL from 1 month to 5 months of treatment in the KMgCit group; It was underaltered from 1 month to 5 months of KCl treatment (0±31 mg/dL). The difference of the change in serum triglyceride between KMgCit and KCl groups was marginally significant (p=0.09). No baseline or 6 month data were available."}, "[4]": {"test_system": "RAA-SNS, serum aldosterone, fasting glucose, HOMA-IR", "details": "cited from earlier work"}}, "data": [{"smiles": "O=C([O-])CC(O)(CC(=O)[O-])C(=O)[O-].[K+].[K+].[K+]", "note": "[KCit powder, potassium citrate]", "values": [{"measurement": "24-hour urinary K excretion", "setting": "[1]", "value": "increased"}, {"measurement": "Serum K", "setting": "[1]", "value": "increased"}]}, {"smiles": "[Cl-].[K+]", "note": "[KCl powder, potassium chloride]", "values": [{"measurement": "Serum FGF23", "setting": "[2]", "value": "53.1±22.2", "unit": "Rel U/ml"}, {"measurement": "24-hour urinary K excretion", "setting": "[1]", "value": "increased"}, {"measurement": "Serum K", "setting": "[1]", "value": "increased"}, {"measurement": "Change in serum triglyceride", "setting": "[3]", "value": "0 ± 31", "unit": "mg/dL"}, {"measurement": "CTD-induced activation of RAA-SNS", "setting": "[4]; KCl supplementation", "value": "unaffected"}, {"measurement": "Serum aldosterone", "setting": "[4]; TZ-treated patients with hypertension, KCl supplementation", "value": "did not reduce"}, {"measurement": "CTD-induced fasting hyperglycemia and increased HOMA-IR", "setting": "[4]; correction of hypokalemia by KCl", "value": "did not reverse"}]}]}
